Results: patent publication US10280145B2 (Toray Industries, Inc., priority 2015, dated 2019)
One block for each compound: values may come before it.

Target: T1, intracellular domain of DDR1 (Homo sapiens, UniProt Q08345)
T1 construct: the intracellular domain of DDR1 (in a final concentration of 5 ng/μL) (Carna Biosciences, Inc.); purchased Carna Biosciences, Inc
Experiment: Evaluation of DDR1 inhibition activity with HTRF KinEASE-TK kit
Type: biochemical
Conditions: DDR1 intracellular domain 5 ng/μL, ATP 25 μm/L, TK Substrate-biotin 1000 nmol/L, room temperature, one hour
Protocol: The DDR1 inhibition activity in the compounds of Examples 1 to 80 was evaluated with HTRF® KinEASE-TK kit (Cisbio Bioassays).
Each test substance was dissolved in dimethyl sulfoxide and then used for the evaluation as described below. Moreover, each of test substances and reagents was diluted in the kinase buffer (Cisbio Bioassays) prepared by adding thereto MgCl2, MnCl2, DTT, and the Supplemental Enzyme buffer (Cisbio Bioassays) to concentrations of 5 mmol/L, 0.5 mmol/L, 0.25 mmol/L, and 50 nmol/L, respectively, and then used. Each test substance (in DMSO in a final concentration of 1%), the intracellular domain of DDR1 (in a final concentration of 5 ng/μL) (Carna Biosciences, Inc.), the phosphate donor ATP (in final concentration of 25 μm/L) (Sigma), and the substrate TK Substrate-biotin (in a final concentration of 1000 nmol/L) (Cisbio Bioassays) were added to a 384-well black plate (Corning) and allowed to react at room temperature for one hour. After completion of the reaction, the TK Antibody-Cryptate (Cisbio Bioassays) and the Streptavidin-XL665 (Cisbio Bioassays) were added thereto and allowed to react at room temperature for one hour. In addition, the plate was provided with a well to which a test substance was not added, and with a well to which a test substance and the intracellular domain of DDR1 were […].
The fluorescence intensity in each well was measured using a multi-label counter (Envision, PerkinElmer; excitation wavelength: 320 nm, measurement wavelength: 665 nm and 620 nm) to calculate a ratio (the fluorescence intensity at 665 nm/the fluorescence intensity at 620 nm). The inhibition rate (%) of a test substance at each concentration was calculated based on the formula below: Inhibition rate (%)=([the ratio obtained from the well containing no test substance]−[the ratio from a well containing a test substance])/([the ratio obtained from the well containing no test substance]−[the ratio obtained from the well containing no intracellular domain of DDR1 and no test substance])×100.
The calculated inhibition rates were fitted to a sigmoidal dose-response curve by regression analysis using the Prism 5.04 (GraphPad Software, Inc.) to calculate the IC50 value of the test substance.

T1 sequence (Q08345 439-913 limits assumed): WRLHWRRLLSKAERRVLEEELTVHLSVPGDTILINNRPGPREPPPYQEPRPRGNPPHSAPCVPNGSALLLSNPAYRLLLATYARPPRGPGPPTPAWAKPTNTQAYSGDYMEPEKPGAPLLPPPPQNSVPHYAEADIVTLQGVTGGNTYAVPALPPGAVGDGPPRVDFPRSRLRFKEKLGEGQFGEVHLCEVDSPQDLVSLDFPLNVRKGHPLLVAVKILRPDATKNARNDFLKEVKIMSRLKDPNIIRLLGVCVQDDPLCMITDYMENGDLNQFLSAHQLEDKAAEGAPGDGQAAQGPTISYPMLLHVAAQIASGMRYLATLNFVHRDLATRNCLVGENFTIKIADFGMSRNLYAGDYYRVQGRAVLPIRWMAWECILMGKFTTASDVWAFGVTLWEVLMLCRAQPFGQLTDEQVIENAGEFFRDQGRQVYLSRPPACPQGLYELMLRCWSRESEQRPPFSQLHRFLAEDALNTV

SMILES: O=C(Nc1ccc(CO)c(C(F)(F)F)c1)N[C@H]1CC[C@H](OCc2ccncc2)CC1 [Example 23, 1-(4-(hydroxymethyl)-3-(trifluoromethyl)phenyl)-3-(trans-4-(pyridin-4-ylmethoxy)cyclohexyl)urea]
IC50: 402 nM

SMILES: COc1ccc(OC(F)(F)F)cc1NC(=O)N[C@H]1CC[C@H](OCc2ccncc2)CC1 [Example 19, 1-(2-methoxy-5-(trifluoromethoxy)phenyl)-3-(trans-4-(pyridin-4-ylmethoxy)cyclohexyl)urea]
IC50: 46.2 nM

SMILES: COc1ccc(OC(F)(F)F)cc1NC(=O)N[C@H]1CC[C@H](Oc2ccnc(NCCO)n2)CC1 [Example 62, 1-(trans-4-((2-((2-hydroxyethyl)amino)pyrimidin-4-yl)oxy)cyclohexyl)-3-(2-methoxy-5-(trifluoromethoxy)phenyl)urea]
IC50: 138 nM

SMILES: O=C(Nc1cc(C(F)(F)F)ccc1F)N[C@H]1CC[C@H](OCc2ccncc2)CC1 [Example 27, 1-(2-fluoro-5-(trifluoromethyl)phenyl)-3-(trans-4-(pyridin-4-ylmethoxy)cyclohexyl)urea]
IC50: 258 nM

SMILES: COc1ccc(C(F)(F)F)cc1NC(=O)N[C@H]1CC[C@H](COCc2ccncc2)CC1 [Example 75, 1-(2-methoxy-5-(trifluoromethyl)phenyl)-3-(trans-4-((pyridin-4-ylmethoxy)methyl)cyclohexyl)urea]
IC50: 20 nM

SMILES: COc1ccc(OC(F)(F)F)cc1NC(=O)N[C@H]1CC[C@H](COc2cccc(C(N)=O)c2)CC1 [Example 78, 3-((trans-4-(3-(2-methoxy-5-(trifluoromethoxy)phenyl)ureido)cyclohexyl)methoxy)benzamide]
IC50: 80.1 nM

SMILES: O=C(Nc1cc(C(F)(F)F)ccc1OC1COC1)N[C@H]1CC[C@H](Oc2nccc(-c3cccnc3)n2)CC1 [Example 41, 1-(2-(oxetan-3-yloxy)-5-(trifluoromethyl)phenyl)-3-(trans-4-((4-(pyridin-3-yl)pyrimidin-2-yl)oxy)cyclohexyl)urea]
IC50: 45.6 nM

SMILES: O=C(Nc1cc(C(F)(F)F)ccc1OC1COC1)N[C@H]1CC[C@H](OCc2ccncc2)CC1 [Example 56, 1-(2-(oxetan-3-yloxy)-5-(trifluoromethyl)phenyl)-3-(trans-4-(pyridin-4-ylmethoxy)cyclohexyl)urea]
IC50: 55.8 nM

SMILES: COc1ccc(OC(F)(F)F)cc1NC(=O)N[C@H]1CC[C@H](COCc2cccnc2)CC1 [Example 72, 1-(2-methoxy-5-(trifluoromethoxy)phenyl)-3-(trans-4-((pyridin-3-ylmethoxy)methyl)cyclohexyl)urea]
IC50: 82.2 nM

SMILES: O=C1CN(c2ccc(C(F)(F)F)cc2NC(=O)N[C@H]2CC[C@H](Oc3ncccn3)CC2)CCN1 [Example 15, 1-(2-(3-oxopiperazin-1-yl)-5-(trifluoromethyl)phenyl)-3-(trans-4-(pyrimidin-2-yloxy)cyclohexyl)urea]
IC50: 72.4 nM

SMILES: CNc1cc(O[C@H]2CC[C@H](NC(=O)Nc3cc(C(F)(F)F)ccc3OC3CCNCC3)CC2)ncn1 [Example 43]
IC50: 31.3 nM

SMILES: COc1ccc(OC(F)(F)F)cc1NC(=O)N[C@H]1CC[C@H](Oc2cccnc2)CC1 [Example 18, 1-(2-methoxy-5-(trifluoromethoxy)phenyl)-3-(trans-4-(pyridin-3-yloxy)cyclohexyl)urea]
IC50: 162 nM

SMILES: O=C(Nc1cc(C(F)(F)F)ccc1OC1COC1)N[C@H]1CC[C@H](Oc2ccncn2)CC1 [Example 66, 1-(2-(oxetan-3-yloxy)-5-(trifluoromethyl)phenyl)-3-(trans-4-(pyrimidin-4-yloxy)cyclohexyl)urea]
IC50: 98.4 nM

SMILES: COc1ccc(C(F)(F)F)cc1NC(=O)N[C@H]1CC[C@H](COCc2cccnc2)CC1 [Example 73, 1-(2-methoxy-5-(trifluoromethyl)phenyl)-3-(trans-4-((pyridin-3-ylmethoxy)methyl)cyclohexyl)urea]
IC50: 57.7 nM

Further lines, results first:

IC50: 128 nM
SMILES: O=C(Nc1cc(OC(F)(F)F)ccc1OC1COC1)N[C@H]1CC[C@H](Oc2ccnc(N3CCOCC3)n2)CC1 [Example 44, 1-(trans-4-((2-morpholinopyrimidin-4-yl)oxy)cyclohexyl)-3-(2-(oxetan-3-yloxy)-5-(trifluoromethoxy)phenyl)urea]

IC50: 46.7 nM
SMILES: O=C(Nc1cc(C(F)(F)F)ccc1OC1COC1)N[C@H]1CC[C@H](Oc2ccnc(NCCO)n2)CC1 [Example 63, 1-(trans-4-((2-((2-hydroxyethyl)amino)pyrimidin-4-yl)oxy)cyclohexyl)-3-(2-(oxetan-3-yloxy)-5-(trifluoromethyl)phenyl)urea]

IC50: 62.2 nM
SMILES: COc1c(CO)cc(C(F)(F)F)cc1NC(=O)N[C@H]1CC[C@H](Oc2ccnc(N3CCOCC3)n2)CC1 [Example 6, 1-(3-(hydroxymethyl)-2-methoxy-5-(trifluoromethyl)phenyl)-3-(trans-4-((2-morpholinopyrimidin-4-yl)oxy)cyclohexyl)urea]

IC50: 24.9 nM
SMILES: CNc1nccc(O[C@H]2CC[C@H](NC(=O)Nc3cc(OC(F)(F)F)cc(CO)c3OC)CC2)n1 [Example 80, 1-(3-(hydroxymethyl)-2-methoxy-5-(trifluoromethoxy)phenyl)-3-(trans-4-((2-(methylamino)pyrimidin-4-yl)oxy)cyclohexyl)urea]

IC50: 57.9 nM
SMILES: COc1c(CO)cc(C(F)(F)F)cc1NC(=O)N[C@H]1CC[C@H](Oc2ccnc(NCCO)n2)CC1 [Example 61, 1-(trans-4-((2-((2-hydroxyethyl)amino)pyrimidin-4-yl)oxy)cyclohexyl)-3-(3-(hydroxymethyl)-2-methoxy-5-(trifluoromethyl)phenyl)urea]

IC50: 54.5 nM
SMILES: CNc1nccc(O[C@H]2CC[C@H](NC(=O)Nc3cc(C(F)(F)F)ccc3OC3COC3)CC2)n1 [Example 64, 1-(trans-4-((2-(methylamino)pyrimidin-4-yl)oxy)cyclohexyl)-3-(2-(oxetan-3-yloxy)-5-(trifluoromethyl)phenyl)urea]

IC50: 189 nM
SMILES: COc1c(CO)cc(C(F)(F)F)cc1NC(=O)N[C@H]1CC[C@H](Oc2ccc(-c3ccccc3)nn2)CC1 [Example 17, 1-(3-(hydroxymethyl)-2-methoxy-5-(trifluoromethyl)phenyl)-3-(4-((6-phenylpyridazin-3-yl)oxy)cyclohexyl)urea]

IC50: 335 nM
SMILES: COc1ccc(OC(F)(F)F)cc1NC(=O)N[C@H]1CC[C@H](Oc2cc(N3CCOCC3)ncn2)CC1 [Example 59, 1-(2-methoxy-5-(trifluoromethoxy)phenyl)-3-(trans-4-((6-morpholinopyrimidin-4-yl)oxy)cyclohexyl)urea]

IC50: 96.7 nM
SMILES: COc1c(CO)cc(C(F)(F)F)cc1NC(=O)N[C@H]1CC[C@H](Oc2ncccn2)CC1 [Example 12, 1-(3-(hydroxymethyl)-2-methoxy-5-(trifluoromethyl)phenyl)-3-(trans-4-(pyrimidin-2-yloxy)cyclohexyl)urea]

IC50: 111 nM
SMILES: O=C(Nc1cc(C(F)(F)F)ccc1OC1COC1)N[C@H]1CC[C@H](Oc2ccnc(N3CCOCC3)n2)CC1 [Example 7, 1-(trans-4-((2-morpholinopyrimidin-4-yl)oxy)cyclohexyl)-3-(2-(oxetan-3-yloxy)-5-(trifluoromethyl)phenyl)urea]

IC50: 254 nM
SMILES: O=C(Nc1ccc(CO)c(C(F)(F)F)c1)N[C@H]1CC[C@H](Oc2ccnc(N3CCOCC3)n2)CC1 [Example 53, 1-(4-(hydroxymethyl)-3-(trifluoromethyl)phenyl)-3-(trans-4-((2-morpholinopyrimidin-4-yl)oxy)cyclohexyl)urea]
